Measurements published in US20230286958A1, “PLASMA KALLIKREIN INHIBITORS” (Merck Sharp & Dohme LLC, priority 2020, published 2023).
pIC50: −log10 of the molar value.

Tests used:
[1] = biological target: Human plasma kallikrein (Homo sapiens (Human), UniProt P03952); assay: Kallikrein Assay (fluorogenic substrate Acetyl-K-P-R-AFC); type: biochemical; details: Plasma Kallikrein (PKal)
Outline: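 Ki is derived from IC50 with the Cheng-Prusoff equation, and IC50 from the inflection point of a four-parameter logistic curve. The rate of AFC release is read with 0.5 nM purified enzyme and […] substrate at room temperature or 37 °C.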

[2] = biological target: human Factor XIa (Homo sapiens (Human), UniProt P03951); assay: Factor XIa Assay (fluorogenic substrate GPR-AFC); type: biochemical; details: Factor XIa (FXIa)
Sequence of human Factor XIa (P03951 388-625 limits assumed): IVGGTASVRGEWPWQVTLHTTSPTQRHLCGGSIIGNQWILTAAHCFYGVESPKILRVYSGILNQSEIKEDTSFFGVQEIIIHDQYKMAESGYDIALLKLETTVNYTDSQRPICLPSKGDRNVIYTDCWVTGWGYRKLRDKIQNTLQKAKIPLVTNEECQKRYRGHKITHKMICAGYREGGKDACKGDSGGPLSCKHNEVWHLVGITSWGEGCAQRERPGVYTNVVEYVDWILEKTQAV
Sequence of human Factor XIa (P03951 19-387 partner limits assumed): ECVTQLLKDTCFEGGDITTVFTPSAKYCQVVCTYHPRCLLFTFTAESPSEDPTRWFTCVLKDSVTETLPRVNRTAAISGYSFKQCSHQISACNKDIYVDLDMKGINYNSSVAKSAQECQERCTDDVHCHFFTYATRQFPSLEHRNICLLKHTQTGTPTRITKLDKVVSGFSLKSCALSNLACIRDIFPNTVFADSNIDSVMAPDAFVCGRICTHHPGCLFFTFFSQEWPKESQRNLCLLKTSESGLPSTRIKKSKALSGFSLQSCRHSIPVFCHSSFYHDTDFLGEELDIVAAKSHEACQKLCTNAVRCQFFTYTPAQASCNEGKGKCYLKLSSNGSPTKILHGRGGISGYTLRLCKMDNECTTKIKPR

Sequence of Human plasma kallikrein (P03952 391-638): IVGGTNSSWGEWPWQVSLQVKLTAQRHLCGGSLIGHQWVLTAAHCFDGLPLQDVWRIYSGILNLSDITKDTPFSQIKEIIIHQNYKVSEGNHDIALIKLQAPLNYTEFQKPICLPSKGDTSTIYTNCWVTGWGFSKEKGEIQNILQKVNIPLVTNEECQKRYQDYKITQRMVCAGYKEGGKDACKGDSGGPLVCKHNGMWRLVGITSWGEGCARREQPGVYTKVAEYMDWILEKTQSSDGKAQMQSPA
Sequence of Human plasma kallikrein (P03952 20-390 partner): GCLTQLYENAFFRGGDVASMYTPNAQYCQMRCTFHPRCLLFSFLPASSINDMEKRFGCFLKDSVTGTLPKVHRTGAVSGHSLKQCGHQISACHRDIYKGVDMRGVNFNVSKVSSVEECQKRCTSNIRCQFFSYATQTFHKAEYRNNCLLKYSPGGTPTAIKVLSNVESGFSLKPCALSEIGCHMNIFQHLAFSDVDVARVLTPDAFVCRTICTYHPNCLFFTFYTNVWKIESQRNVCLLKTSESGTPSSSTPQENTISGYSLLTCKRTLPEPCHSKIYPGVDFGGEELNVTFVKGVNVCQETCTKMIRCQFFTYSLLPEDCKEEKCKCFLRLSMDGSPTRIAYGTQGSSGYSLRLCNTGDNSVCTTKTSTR

Row | Compound | pIC50 [1] | pIC50 [2]
1 | Cc1nc(C(C)n2cc(NC(=O)c3cncc(-c4c(OC(F)F)ccc(Cl)c4F)n3)cn2)cnc1N1C[C@H]2C[C@H]2C1=O (single isomer, unassigned) [Example 17, 6-(3-Chloro-6-(difluoromethoxy)-2-fluorophenyl)-N-(1-((R or S)-1-(6-methyl-5-((1R,5S)-2-oxo-3-azabicyclo[3.1.0]hexan-3-yl)pyrazin-2-yl)ethyl)-1H-pyrazol-4-yl)pyrazine-2-carboxamide] | 9.15 | 5.76
2 | CC(c1cnc(N2Cc3cccnc3C2=O)nc1)n1cc(NC(=O)c2cncc(-c3c(C(F)F)ccc(Cl)c3F)n2)cn1 (racemic) [Example 26, (S and R)-6-(3-Chloro-6-(difluoromethyl)-2-fluorophenyl)-N-(1-(1-(2-(7-oxo-5,7-dihydro-6H-pyrrolo[3,4-b]pyridin-6-yl)pyrimidin-5-yl)ethyl)-1H-pyrazol-4-yl)pyrazine-2-carboxamide] | 8.21 | < 5.00
3 | Cc1nc(N2C[C@H]3C[C@H]3C2=O)ncc1C(C)n1cc(NC(=O)c2nc(-c3c(C(F)F)ccc(Cl)c3F)cnc2CO)cn1 (single isomer, unassigned) [Example 194, 6-(3-Chloro-6-(difluoromethyl)-2-fluorophenyl)-3-(hydroxymethyl)-N-(1-((S or R)-1-(4-methyl-2-((1R,5S)-2-oxo-3-azabicyclo[3.1.0]hexan-3-yl)pyrimidin-5-yl)ethyl)-1H-pyrazol-4-yl)pyrazine-2-carboxamide] | 9.30 | 6.58
4 | Cc1ncc(-c2c(C(F)F)ccc(Cl)c2F)nc1C(=O)Nc1cnn(C(C)c2cnc(N3C[C@H]4C[C@H]4C3=O)c3c2OC(F)(F)O3)c1 (single isomer, unassigned) [Example 246, 6-(3-Chloro-6-(difluoromethyl)-2-fluorophenyl)-N-(1-((R or S)-1-(2,2-difluoro-4-((1R,5S)-2-oxo-3-azabicyclo[3.1.0]hexan-3-yl)-[1,3]dioxolo[4,5-c]pyridin-7-yl)ethyl)-1H-pyrazol-4-yl)-3-methylpyrazine-2-carboxamide] | 8.22 | 5.18
5 | CC(c1cnc(N2CC3CC3C2=O)nc1)n1cc(NC(=O)c2cncc(-c3c(OC(F)F)ccc(Cl)c3F)n2)cn1 (single isomer, unassigned) [Example 73, 6-(3-Chloro-6-(difluoromethoxy)-2-fluorophenyl)-N-(1-((S or R)-1-(2-((1S,5R or 1R,5S)-2-oxo-3-azabicyclo[3.1.0]hexan-3-yl)pyrimidin-5-yl)ethyl)-1H-pyrazol-4-yl)pyrazine-2-carboxamide] | 7.64 | 5.64
6 | Cc1nc(N2C[C@H]3C[C@H]3C2=O)ncc1C(C)n1cc(NC(=O)c2nc(-c3c(C(F)F)ccc(Cl)c3F)cnc2C)cn1 (single isomer, unassigned) [Example 43] | 7.13 | 5.35
7 | Cc1ncc(-c2c(C(F)F)ccc(Cl)c2F)nc1C(=O)Nc1cnn(C(C)c2cnc(N3C[C@H]4C[C@H]4C3=O)c(OC(F)F)c2C)c1 (single isomer, unassigned) [Example 225] | 9.05 | 5.24
8 | Cc1nc(C(C)n2cc(NC(=O)c3cncc(-c4c(C(F)F)ccc(Cl)c4F)n3)cn2)ccc1N1C[C@H]2C[C@H]2C1=O (single isomer, unassigned) [Example 61, 6-(3-Chloro-6-(difluoromethyl)-2-fluorophenyl)-N-(1-((R or S)-1-(6-methyl-5-((1R,5S)-2-oxo-3-azabicyclo[3.1.0]hexan-3-yl)pyridin-2-yl)ethyl)-1H-pyrazol-4-yl)pyrazine-2-carboxamide] | 9.15 | < 5.00
9 | Cc1ncc(-c2c(OC(F)F)ccc(Cl)c2F)nc1C(=O)Nc1cnn(C(C)c2cnc(N3C[C@H]4C[C@H]4C3=O)c(F)c2C)c1 (single isomer, unassigned) [Example 129, 6-(3-Chloro-6-(difluoromethoxy)-2-fluorophenyl)-N-(1-((S or R)-1-(5-fluoro-4-methyl-6-((1R,5S)-2-oxo-3-azabicyclo[3.1.0]hexan-3-yl)pyridin-3-yl)ethyl)-IH-pyrazol-4-yl)-3-methylpyrazine-2-carboxamide] | 8.37 | 5.49
10 | Cc1cc(Cn2cc(NC(=O)c3cncc(-c4c(C(F)F)ccc(Cl)c4F)n3)cn2)ncc1N1C[C@H]2C[C@H]2C1=O [Example 65, 6-(3-Chloro-6-(difluoromethyl)-2-fluorophenyl)-N-(1-((4-methyl-5-((1R,5S)-2-oxo-3-azabicyclo[3.1.0]hexan-3-yl)pyridin-2-yl)methyl)-1H-pyrazol-4-yl)pyrazine-2-carboxamide] | 7.45 | < 5.00
11 | Cc1ncc(-c2c(C(F)F)ccc(Cl)c2F)nc1C(=O)Nc1cnn(C2(c3cnc(N4C[C@H]5C[C@H]5C4=O)c(C)n3)CC2)c1 [Example 220, 6-(3-Chloro-6-(difluoromethyl)-2-fluorophenyl)-3-methyl-N-(1-(1-(6-methyl-5-((1R,5S)-2-oxo-3-azabicyclo[3.1.0]hexan-3-yl)pyrazin-2-yl)cyclopropyl)-1H-pyrazol-4-yl)pyrazine-2-carboxamide] | 8.11 | < 5.00
12 | Cc1cc(C(C)n2cc(NC(=O)c3nc(-c4c(C(F)F)ccc(Cl)c4F)cnc3C)cn2)cnc1N1C[C@H]2C[C@H]2C1=O (single isomer, unassigned) [Example 119, 6-(3-Chloro-6-(difluoromethyl)-2-fluorophenyl)-3-methyl-N-(1-((S or R)-1-(5-methyl-6-((1R,5S)-2-oxo-3-azabicyclo[3.1.0]hexan-3-yl)pyridin-3-yl)ethyl)-1H-pyrazol-4-yl)pyrazine-2-carboxamide] | 9.22 | 6.11
13 | O=C(Nc1cnn(Cc2ccc(N3C[C@H]4C[C@H]4C3=O)nc2)c1)c1cncc(-c2c(C(F)F)ccc(Cl)c2F)n1 [Example 9, 6-(3-Chloro-6-(difluoromethyl)-2-fluorophenyl)-N-(1-((6-((1R,5S)-2-oxo-3-azabicyclo[3.1.0]hexan-3-yl)pyridin-3-yl)methyl)-1H-pyrazol-4-yl)pyrazine-2-carboxamide] | 9.00 | < 5.00
14 | C=Cc1ncc(-c2c(C(F)F)ccc(Cl)c2F)nc1C(=O)Nc1cnn(Cc2cnc(N3C[C@H]4C[C@H]4C3=O)nc2C)c1 [Example 35, 6-(3-Chloro-6-(difluoromethyl)-2-fluorophenyl)-N-(1-((4-methyl-2-((1R,5S)-2-oxo-3-azabicyclo[3.1.0]hexan-3-yl)pyrimidin-5-yl)methyl)-1H-pyrazol-4-yl)-3-vinylpyrazine-2-carboxamide] | 8.17 | 5.31
15 | Cc1ncc(-c2c(C(F)F)ccc(Cl)c2F)nc1C(=O)Nc1cnn(C(C)c2ncc(N3C[C@H]4C[C@H]4C3=O)c(C)c2F)c1 (single isomer, unassigned) [Example 244, 6-(3-Chloro-6-(difluoromethyl)-2-fluorophenyl)-N-(1-((R or S)-1-(3-fluoro-4-methyl-5-((1R,5S)-2-oxo-3-azabicyclo[3.1.0]hexan-3-yl)pyridin-2-yl)ethyl)-1H-pyrazol-4-yl)-3-methylpyrazine-2-carboxamide] | 7.33 | < 5.00
16 | Cc1c(C(C)n2cc(NC(=O)c3cncc(-c4c(C(F)F)ccc(Cl)c4F)n3)cn2)cnc(N2C[C@H]3C[C@H]3C2=O)c1F (stereo partly drawn) [Example 45, 6-(3-Chloro-6-(difluoromethyl)-2-fluorophenyl)-N (1-(1-(5-fluoro-4-methyl-6-((1R,5S)-2-oxo-3-azabicyclo[3.1.0]hexan-3-yl)pyridin-3-yl)ethyl)-1H-pyrazol-4-yl)pyrazine-2-carboxamide] | 8.21 | 5.33
17 | Cc1nc(Cn2cc(NC(=O)c3nc(-c4c(C(F)F)ccc(Cl)c4F)cnc3C(F)F)cn2)cnc1N1C[C@H]2C[C@H]2C1=O [Example 94, 6-(3-Chloro-6-(difluoromethyl)-2-fluorophenyl)-3-(difluoromethyl)-N-(1-((6-methyl-5-((1R, 5S)-2-oxo-3-azabicyclo[3.1.0]hexan-3-yl)pyrazin-2-yl)methyl)-1H-pyrazol-4-yl)pyrazine-2-carboxamide] | 8.80 | 6.00
18 | Cc1nc(Cn2cc(NC(=O)c3nc(-c4c(C(F)F)ccc(Cl)c4F)cnc3C)cn2)ncc1N1C[C@H]2C[C@H]2C1=O [Example 93, 6-(3-Chloro-6-(difluoromethyl)-2-fluorophenyl)-3-methyl-N-(1-((4-methyl-5-((1R,5S)-2-oxo-3-azabicyclo[3.1.0]hexan-3-yl)pyrimidin-2-yl)methyl)-1H-pyrazol-4-yl)pyrazine-2-carboxamide] | 7.70 | < 5.00
19 | CC(c1cnc(N2C[C@H]3C[C@H]3C2=O)c2c1CCC2)n1cc(NC(=O)c2cncc(-c3c(C(F)F)ccc(Cl)c3F)n2)cn1 (single isomer, unassigned) [Example 142, 6-(3-Chloro-6-(difluoromethyl)-2-fluorophenyl)-N-(1-((R or S)-1-(1-((1R,5S)-2-oxo-3-azabicyclo[3.1.0]hexan-3-yl)-6,7-dihydro-5H-cyclopenta[c]pyridin-4-yl)ethyl)-1H-pyrazol-4-yl)pyrazine-2-carboxamide] | 9.22 | 6.43
20 | Cc1ncc(-c2c(C#N)ccc(Cl)c2F)nc1C(=O)Nc1cnn(C(C)c2cnc(N3C[C@H]4C[C@H]4C3=O)c(C)n2)c1 (single isomer, unassigned) [Example 235, 6-(3-Chloro-6-cyano-2-fluorophenyl)-3-methyl-N-(1-((S or R)-1-(6-methyl-5-((1R,5S)-2-oxo-3-azabicyclo[3.1.0]hexan-3-yl)pyrazin-2-yl)ethyl)-1H-pyrazol-4-yl)pyrazine-2-carboxamide] | 9.40 | 5.69
21 | Cc1cc(Cn2cc(NC(=O)c3nc(-c4c(C(F)F)ccc(Cl)c4F)cnc3C)cn2)nnc1N1C[C@H]2C[C@H]2C1=O [Example 83, 6-(3-Chloro-6-(difluoromethyl)-2-fluorophenyl)-3-methyl-N-(1-((5-methyl-6-((1R,5S)-2-oxo-3-azabicyclo[3.1.0]hexan-3-yl)pyridazin-3-yl)methyl)-1H-pyrazol-4-yl)pyrazine-2-carboxamide] | 8.47 | 6.59
